How the values were obtained:
IFN-β = IFN-β concentration in culture supernatant of LPS-stimulated Raw264.7 cells (ELISA); type: cell-based; conditions: PIPA 1, 3 or 10 μM 24 h, then LPS 20 ng/mL 16 h
Procedure: Raw264.7 cells, a macrophage cell line, were seeded on a 96-well plate at a cell density of 2×10^4 cells/well, and were then culture for 8 hours for adhesion. Thereafter, IRF-PIPA was added to the cultured cells to final concentrations of 1, 3, or 10 μM. After completion of the culture for 24 hours, LPS was added to the cultured cells to a final concentration of 20 ng/mL, and the obtained mixture was then cultured for 16 hours, followed by the recovery of the supernatant. The supernatant was 2-fold diluted with 1% BSA-PBS, and the IFN-β concentration was then measured by ELISA.
Raw264.7 cells, a cell line, were purchased from RIKEN Cell Bank, and were then cultured using D-MEM (Nacalai Tesque) containing 10% FBS (SIGMA-ALDRICH) and Penicillin-Streptomycin mixed solution (Nacalai Tesque).
(§1) 2×10^4 Raw264.7 cells were seeded on a plate, and were then treated with IRF-PIPA 1, IRF-PIPA 2, IRF-PIPA 3 or IRF-PIPA 4 for 24 hours. Thereafter, the cells were stimulated with LPS (Lipopolysaccharide, SIGMA-ALDRICH) for 16 hours, and the culture supernatant was then recovered. The concentration of cytokine in the culture supernatant was measured using ELISA kit (R&D SYSTEMS) according to the standard protocols. The culture supernatant was diluted with 1% BSA-PBS, as necessary, and was then analyzed. 2.5×10^5 Mouse peritoneal macrophages were seeded on a plate, and were then treated with IRF-PIPA 3 for 16 or 24 hours. Thereafter, the cells were stimulated with Poly(I:C) (InvivoGen) for 16 hours or with mRNA vaccine (Moderna) for 20 to 24 hours, and the culture supernatant was then recovered. The concentration of cytokine in the culture supernatant was measured using ELISA kit (R&D SYSTEMS) according to the same standard protocols. On the other hand, the concentration of cytokine in mouse plasma was measured by administering 400 μg/mouse IRF-PIPA 3 into the abdominal cavity of wild-type mice, then administering 250 μg of Poly(I:C) into the same abdominal cavity 24 hours after the IRF-PIPA 3 administration, then collecting blood further 2 hours after the Poly(I:C) administration, and then measuring the cytokine concentration in the plasma using ELISA kit (R&D SYSTEMS) according to standard protocols.

IFN-β, IL-6 and TNF-α [1] = assay: In vivo cytokine protein concentration in plasma after Poly(I:C) (ELISA); design: species or system mice
Procedure: […] Two hours after the administration of Poly(I:C), blood was collected, and individual protein concentrations of IFN-β, IL-6 and TNF-α in the plasma were then measured by an ELISA method.
as §1

IFN-β, IL-6 and TNF-α [2] = assay: Cytokine protein expression in peritoneal macrophages treated with LNP-mRNA encoding ovalbumin (ELISA); type: cell-based, mice; conditions: 6 μM, LNP-mRNA (OVA) 0.5 μg/mL 20 to 24 hours
Procedure: Peritoneal macrophages were harvested from wild-type mice, and were then seeded on a 96-well plate at a cell density of 2.5×10^5 cells/well, followed by culturing for 2 hours. Thereafter, the cultured cells were washed twice with PBS. Subsequently, IRF-PIPA 3 was suspended in 10% FBS-RPMI or D-MEM to a final concentration of 6 μM, and was then added to the wells. After completion of the culture for 16 hours, an mRNA vaccine was added to the cultured cells to a final concentration of 0.5 μg/mL, and the obtained mixture was then cultured for 20 to 24 hours. Thereafter, the culture supernatant was recovered, and each protein concentration of IFN-β, IL-6 or TNF-α was then measured by ELISA.
as §1, with “Thereafter, the cells were stimulated with Poly(I:C) (InvivoGen) for 16 hours or with mRNA vaccine (Moderna) for 20 to 24 hours, and the culture supernatant was then recovered.” left out

peritoneal macrophages = assay: Cytotoxic activity: dsDNA concentration and LDH activity in culture supernatant; type: cell-based, mice
Procedure: In order to verify the cytotoxic activity of IRF-PIPA 3, dsDNA concentration (left view in the figure) and LDH concentration (right view in the figure) in the culture supernatant were measured. The same experiment as that in FIG. 2 was carried out, and the culture supernatant was recovered. A lysate obtained by mixing 2.5×10^5 peritoneal macrophages with 90 μL of 10% FBS-RPMI or D-MEM medium and 10 μL of Lysis Buffer, and then disrupting the cells, was used as a positive control. […] Using Octet K2, the binding of each concentration of IRF-PIPA 3 shown in the figure and a target DNA sequence was analyzed. After mixing a PIPA solution with target DNA, the binding of the two substances was measured for 60 seconds. […] From changes in the binding and dissociation at each concentration over time, a Kd value was calculated as a dissociation constant indicating a binding force.
The concentration of dsDNA in the culture supernatant was measured using Nano drop one (Thermo Fisher SCIENTIFIC). In LDH assay, LDH activity was measured using Cytotoxicity LDH Assay Kit-WST (DOJINDO LABORATORIES) according to standard protocols. As a positive control, a lysate obtained by mixing 2.5×10^5 peritoneal macrophages with 90 μL of 10% FBS-RPMI or D-MEM medium and 10 μL of Lysis Buffer, and then disrupting the cells, was used.

RBD = RBD concentration in plasma after mRNA vaccine plus Poly(I:C) (ELISA); type: in vivo, mice; conditions: 400 μg/mouse i.m. or i.p., 24 h later mRNA vaccine 1 μg/mouse i.m. plus Poly(I:C) 250 μg/mouse, blood one day later
[3] = tested on: Ifnb1, Il6, and Tnf genes; assay: In vivo relative mRNA expression in peritoneal macrophages after Poly(I:C) (qRT-PCR); design: species or system mice; conditions: 400 μg/mouse i.p., Poly(I:C) 250 μg/mouse i.p. 3 h later, peritoneal macrophages 2 h later
Procedure: IRF-PIPA 3 was administered into the abdominal cavity of wild-type mice in an amount of 400 μg/mouse, and 3 hours after the administration, 250 μg/mouse Poly(I:C) was also administered into the abdominal cavity. Two hours after the administration of Poly(I:C), peritoneal macrophages were recovered, and the relative expression levels of Ifnb1, Il6, and Tnf genes were then analyzed by qRT-PCR.

[4] = 400 μg/mouse i.p., Poly(I:C) 250 μg/mouse i.p. 24 hours, 1, 4 or 7 days later, blood 2 h later
[5] = plasma IFN-β, IL-6, TNF-α, Poly(I:C) 1, 4 or 7 days after IRF-PIPA 3
[6] = peritoneal macrophages, same experiment as FIG. 2 (3 or 10 μM)

CC(=O)Nc1cn(C)c(C(=O)Nc2cc(C(=O)NCCC(=O)Nc3cc(C(=O)Nc4cn(C)c(C(=O)NCCC(=O)Nc5cn(C)c(C(=O)NCCCC(=O)Nc6cc(C(=O)Nc7cc(C(=O)Nc8cc(C(=O)NCCC(=O)Nc9cc(C(=O)Nc%10cc(C(=O)NCCC(=O)NCCCN(C)C)n(C)c%10)n(C)c9)n(C)c8)n(C)c7)n(C)c6)n5)n4)n(C)c3)n(C)c2)n1 [IRF-PIPA 3]
concentration dependence of suppression of IFN-β production (IFN-β): concentration-dependent suppression was observed
suppression of IFN-β production (IFN-β; ELISA of supernatant): strongest suppressive action among the 4 PIPAs
IFN-β protein concentration in plasma (IFN-β, IL-6 and TNF-α [1]; [4]): significantly suppressed
IL-6 protein concentration in plasma (IFN-β, IL-6 and TNF-α [1]; [4]): significantly suppressed
TNF-α protein concentration in plasma (IFN-β, IL-6 and TNF-α [1]; [4]): significantly suppressed
time after administration of highest suppressive effect (IFN-β, IL-6 and TNF-α [1]; [5]): 1 days
time after administration until which the suppressive effect was sustained (attenuated) (IFN-β, IL-6 and TNF-α [1]; [5]): ≥ 7 days
expression of IFN-β protein after LNP-mRNA (IFN-β, IL-6 and TNF-α [2]): strongly suppressed
expression of IL-6 protein after LNP-mRNA (IFN-β, IL-6 and TNF-α [2]): strongly suppressed
expression of TNF-α protein after LNP-mRNA (IFN-β, IL-6 and TNF-α [2]): strongly suppressed
cytotoxic activity (peritoneal macrophages; concentration range in which IRF-PIPA 3 shows strong suppressive action): does not exhibit cytotoxic activity
LDH activity in the culture supernatant (peritoneal macrophages; [6]): not increased at all
amount of DNA in the culture supernatant (peritoneal macrophages; [6]): not increased at all
concentration of the RBD protein in plasma (RBD): a decrease in the concentration of the RBD protein caused by Poly(I: C) was suppressed
expression level of Ifnb1 mRNA in vivo [3]: significantly suppressed
expression level of Il6 mRNA in vivo [3]: significantly suppressed
expression level of Tnf mRNA in vivo [3]: significantly suppressed

From patent US20250268931A1, “TRANSCRIPTIONAL INHIBITOR FOR IMMUNE-RELATED GENE” (The University of Tokyo, priority 2022, published 2025)
